“Also recorded” adds a separate entry of the source.

This note sets out measurements from patent US20100215588A1, “THERAPEUTIC DELIVERY OF INHIBITORY NUCLEIC ACID MOLECULES TO THE RESPIRATORY SYSTEM” (priority 2007, published 2010).

The nature of data set [1]: Semi-quantitative distribution of I5NP siRNA in lung (hybridization assay). The class given is in vivo, cynomolgus monkeys. As to the method:
On Day 15 of the study, two of the available animals (101 and 102) were administered a target dose of 35 mg/kg of a mixture of I5NP and REDD14Cy3.5 (fluorescence-labelled) siRNA via an oronasal mask as a nebulized aerosol generated by the Aeroneb device. A 2.0 L/min dilution airflow was used. The total dose of siRNA administered was calculated, based on the bodyweights and measured respiratory minute volumes of the animals, and on the achieved output of the Aeroneb device using the formulation concentration of 40 mg/mL of siRNA. The administered dose was adjusted by changing the exposure times for the animals
On Day 35 of the Study, the three remaining main study animals (103 to 105) were administered a target dose of 35 mg/kg of I5NP siRNA via an oronasal mask as a nebulized aerosol generated by the Aeroneb device. A 2.0 L/min dilution airflow was used. The total dose administered was calculated, based on the bodyweights and measured respiratory minute volumes of the animals, and on the achieved output of the Aeroneb device using the formulation concentration of 40 mg/mL. The administered dose was adjusted by changing the exposure times for the animals.
At the time of necropsy following Treatment 2, the lungs of animal 101 were removed from the animal. The lungs were separated into individual lobes. The bronchi/bronchioles and immediately surrounding regions of each lobe were dissected out as carefully as was practicable and pooled, per lobe. The remaining tissue areas were pooled, per lobe. Each pooled sample (i.e. bronchi/bronchioles and remaining tissue for each lobe) was stored deep-frozen (−80° C.) for analysis via hybridization assay. Lung samples from animal 101 were tracked using the Watson LIMS system.
At each specified time of necropsy following Treatment 3, the lungs of animals 103, 104 or 105 were removed from the animals. Each set of lungs were separated into individual lobes. The bronchi/bronchioles and immediately surrounding regions of each lobe were dissected out as carefully as was practicable and pooled, per lobe. The remaining tissue areas were pooled, per lobe. […]
All lung samples from animal 101 (i.e. left cranial lobe, bronchioles and remainder; left caudal lobe, bronchioles and remainder; right cranial lobe, bronchioles and remainder; right middle lobe, bronchioles and remainder; right caudal lobe, bronchioles and remainder and right accessory lobe, bronchioles and remainder) were analyzed for I5NP siRNA concentration. For animals 103, 104 and 105, left cranial lobe (bronchioles and remainder) and right caudal lobe (bronchioles and remainder) were analyzed for I5NP siRNA concentration. […] The results obtained for lung samples were considered as semi-quantitative.

A short description of data set [2]: Clinical observations after inhalation doses of siRNA. The class given is in vivo, cynomolgus monkeys. As to the method:
Male cynomolgus monkeys were administered single oronasal inhalation doses of a nebulised aerosol formulation of fluorescent-labelled REDD14Cy3.5 and/or I5NP siRNAs. Following dosing, the concentration of I5NP in plasma, the non-compartmental disposition kinetics of I5NP in plasma, the qualitative distribution of REDD14Cy3.5 in lungs and the semi-quantitative distribution of I5NP in lungs were determined.
Animals were treated with test aerosols using a pediatric anesthetic-type oronasal face mask fitted with inlet and outlet tubes and a breathing loop. During treatment, animals were placed in a restraint sling. The test atmospheres were generated using an Aeroneb (Aerogen) nebulizer, and assessed for output as described below. The level of exposure to the test article was achieved by varying the duration of exposure.
On Day 1 of the study, four of the available monkeys (101 to 104) were administered a target dose of 35 mg/kg of I5NP siRNA via an oronasal mask as a nebulized aerosol generated by the Aeroneb device. A 2.0 L/min dilution airflow was used. The total dose administered was calculated, based on the bodyweights and measured respiratory minute volumes of the animals, and on the achieved output of the Aeroneb device using the formulation concentration of 40 mg/mL. The administered dose was adjusted by changing the exposure times for the animals. […]

For “I5NP: exemplary p53 inhibiting siRNA; sense GAGAAUAUUUCACCCUUCA, antisense UGAAGGGUGAAAUAUUCUC (chemistry not given here)”, the “I5NP concentration in bronchioles and peripheral lung tissues” value in data set [1] (Treatment 2 (I5NP:REDD14Cy3.5 9:1), animal 101, approximately 30 minutes post-end of dosing, all 6 lobes, semi-quantitative) is “found in high concentrations in both bronchioles and in peripheral tissues of all lobes of each lung”. Moreover, in data set [1] (Treatment 2, animal 101, approximately 30 minutes post-end of dosing), the “I5NP concentration, peripheral tissues versus bronchiolar samples” value is on record as “generally higher in the peripheral tissues than in the bronchiolar samples”. For the same substance, in data set [1] (Treatment 3, animals 103, 104, 105, 6, 24 and 72 h post-end of dosing, left cranial and right caudal lobes), the “relative concentrations in bronchiolar and peripheral lung tissues over time” value is given as “still detectible at 72 hours post-end of dosing”. The “levels in lungs compared with plasma” value in data set [1] (all time points post-dose) is “at all times greater than those in plasma; also recorded: higher than in plasma”. The “macroscopic findings in organs and tissues” value in data set [2] (necropsy after inhalation doses) is “of no toxicological significance”. Further, the treatment-related clinical signs entry in data set [2] (single oronasal inhalation doses, target 35 mg/kg) is on record as “No treatment-related clinical signs were observed”.
